{
  "source": "patent US12371454B2",
  "about": "“Cyclic peptide compound having Kras inhibitory action” (priority 2019, dated 2025)",
  "note": "Positions of bridges follow the written chain, without caps; N, C: chain ends. Non-standard residues stand in square brackets, D forms with d. Residues, ends and D or L forms follow the SMILES beside them. *: point of attachment. hPhe(3,5-F2-4-CF3) = N[C@@H](CCc1cc(F)c(C(F)(F)F)c(F)c1)C(=O)O; hPhe(3-Cl-4-CF3) = N[C@@H](CCc1ccc(C(F)(F)F)c(Cl)c1)C(=O)O; Thiomorpholino(1,1-dioxo) = O=S1(=O)CCN(*)CC1; NMePhe(4-Cl) = CN[C@@H](Cc1ccc(Cl)cc1)C(=O)O; NMePhe(4-Me) = CN[C@@H](Cc1ccc(C)cc1)C(=O)O; NMeGly(cPent) = CN[C@H](C(=O)O)C1CCCC1; Phe(3-I) = N[C@@H](Cc1cccc(I)c1)C(=O)O; Phe(4-Me) = Cc1ccc(C[C@H](N)C(=O)O)cc1; NMeCha = CN[C@@H](CC1CCCCC1)C(=O)O; NMehLeu = CN[C@@H](CCC(C)C)C(=O)O; NMeChg = CN[C@H](C(=O)O)C1CCCCC1; NMeI = CC[C@H](C)[C@H](NC)C(=O)O; dNMeF = CN[C@H](Cc1ccccc1)C(=O)O; Cha = N[C@@H](CC1CCCCC1)C(=O)O; NMeD = CN[C@@H](CC(=O)O)C(=O)O; CH2CONHtBu = CC(C)(C)NC(=O)C*; NMeL = CN[C@@H](CC(C)C)C(=O)O; NMeV = CN[C@H](C(=O)O)C(C)C; d(β3hA) = C[C@@H](N)CC(=O)O; Azetidin(1-yl) = C1CN(*)C1; NMeS = CN[C@@H](CO)C(=O)O; Pip = O=C(O)[C@@H]1CCCCN1; NMeA = CN[C@@H](C)C(=O)O; NMeAib = CNC(C)(C)C(=O)O; Piperidide = C1CCN(*)CC1; Pra = C#CC[C@H](N)C(=O)O; Ac5c = NC1(C(=O)O)CCCC1; Aze = O=C(O)[C@@H]1CCN1; Aib = CC(C)(N)C(=O)O; Isopentyl = CC(C)CC*; Sar = CNCC(=O)O",
  "data": [
    {"molecular_target": "T1, Kras and SOS1 (biotin-tagged human Kras loaded with GDP, His-tagged human SOS1) (Homo sapiens, UniProt P01116, G12D)", "T1 construct": "made in house; host or cells: E. coli (stated for Kras only)", "T1 sequence (P01116 1-188 isoform P01116-2 G12D)": "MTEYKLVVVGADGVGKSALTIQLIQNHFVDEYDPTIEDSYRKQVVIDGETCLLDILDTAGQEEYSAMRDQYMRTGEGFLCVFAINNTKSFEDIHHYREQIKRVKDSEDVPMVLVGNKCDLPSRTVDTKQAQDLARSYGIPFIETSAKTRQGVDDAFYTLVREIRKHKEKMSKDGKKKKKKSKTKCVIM", "test": "Protein-protein interaction inhibition between Kras and SOS1 (KrasGl2D-SOS PPI) using AlphaScreen", "type": "binding", "settings": "AlphaScreen; biotin-tagged human Kras loaded with GDP, His-tagged human SOS1; read-out: KRAS G12D-SOS PPI IC50", "outline": "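AlphaScreen format: Ni donor beads capture His-SOS1, streptavidin acceptor beads capture biotinylated Kras (E. coli-expressed, GDP-loaded post-purification). Excite 680 nm, read 520-620 nm.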", "units": {"IC50": "nM"}, "values": [
      {"smiles": "CC[C@H](C)[C@@H]1NC(=O)[C@H](CCC(C)C)N(C)C(=O)C[C@@H](C(=O)N2CCC2)N(C)C(=O)[C@H](C2CCCC2)N(C)C(=O)C2(CCCC2)NC(=O)[C@@H]2CCCN2C(=O)[C@H](CCc2ccc(C(F)(F)F)c(Cl)c2)NC(=O)CN(C)C(=O)[C@H](CC2CCCCC2)N(C)C(=O)[C@@H]2CCN2C(=O)[C@H](C)N(C)C1=O", "note": "[Compound 806] ([NMehLeu]I[NMeA][Aze][NMeCha][Sar][hPhe(3-Cl-4-CF3)]P[Ac5c][NMeGly(cPent)][NMeD]-{Azetidin(1-yl)}; lactam N-11)", "IC50": 1.1},
      {"smiles": "CC[C@H](C)[C@@H]1NC(=O)[C@H](CC(C)C)N(C)C(=O)C[C@@H](C(=O)N(C)C)N(C)C(=O)[C@H](C2CCCC2)N(C)C(=O)[C@H](C(C)C)NC(=O)[C@@H](C)NC(=O)[C@H](CCc2ccc(C(F)(F)F)c(Cl)c2)NC(=O)CN(C)C(=O)[C@H](CC2CCCCC2)N(C)C(=O)[C@@H]2CCN2C(=O)[C@H](C)N(C)C1=O", "note": "[Compound 24] ([NMeL]I[NMeA][Aze][NMeCha][Sar][hPhe(3-Cl-4-CF3)][dA]V[NMeGly(cPent)][NMeD]-NMe2; lactam N-11)", "IC50": 25},
      {"smiles": "CC(C)C[C@H]1C(=O)N[C@@H](CC2CCCCC2)C(=O)N(C)CC(=O)N(C)CC(=O)N(C)[C@@H](CC2CCCCC2)C(=O)N(C)CC(=O)N[C@@H](CCc2ccc(C(F)(F)F)c(Cl)c2)C(=O)N2CCC[C@H]2C(=O)NC2(CCCC2)C(=O)N(C)[C@@H](C(C)C)C(=O)N[C@H](C)CC(=O)N1C", "note": "[Compound 537] (cyclo([Ac5c][NMeV][d(β3hA)][NMeL][Cha][Sar][Sar][NMeCha][Sar][hPhe(3-Cl-4-CF3)]P))", "IC50": 82},
      {"smiles": "CC[C@H](C)[C@@H]1NC(=O)[C@H](CC(C)C)N(C)C(=O)C[C@@H](C(=O)N2CCS(=O)(=O)CC2)NC(=O)[C@H](C(C)C)N(C)C(=O)C2(CCCC2)NC(=O)[C@@H]2CCCN2C(=O)[C@H](CCc2ccc(C(F)(F)F)c(Cl)c2)NC(=O)CN(C)C(=O)[C@H](CC2CCCCC2)N(C)C(=O)[C@@H]2CCN2C(=O)[C@H](C)N(C)C1=O", "note": "[Compound 1349] ([NMeL]I[NMeA][Aze][NMeCha][Sar][hPhe(3-Cl-4-CF3)]P[Ac5c][NMeV]D-{Thiomorpholino(1,1-dioxo)}; lactam N-11)", "IC50": 150},
      {"smiles": "CC[C@H](C)[C@@H]1NC(=O)[C@H](CC(C)C)N(C)C(=O)C[C@@H](C(=O)N2CCCCC2)N(C)C(=O)[C@H](CC(C)C)NC(=O)C(C)(C)N(C)C(=O)[C@H](Cc2ccc(C)cc2)NC(=O)[C@H](Cc2cccc(I)c2)NC(=O)CN(C)C(=O)[C@H](CC2CCCCC2)N(C)C(=O)CN(C)C(=O)CN(C)C1=O", "note": "[Compound 166] ([NMeL]I[Sar][Sar][NMeCha][Sar][Phe(3-I)][Phe(4-Me)][NMeAib]L[NMeD]-Piperidide; lactam N-11)", "IC50": 21},
      {"smiles": "C#CC[C@@H]1NC(=O)[C@H](Cc2cccc(I)c2)NC(=O)CN(C)C(=O)[C@H](Cc2ccc(Cl)cc2)N(C)C(=O)[C@@H]2CCN2C(=O)[C@H](C)N(C)C(=O)[C@H]([C@@H](C)CC)NC(=O)[C@H](CC(C)C)N(C)C(=O)C[C@@H](C(=O)N2CCCCC2)N(C)C(=O)[C@H](CC(C)C)NC(=O)C(C)(C)N(C)C1=O", "note": "[Compound 1428] ([NMeL]I[NMeA][Aze][NMePhe(4-Cl)][Sar][Phe(3-I)][Pra][NMeAib]L[NMeD]-Piperidide; lactam N-11)", "IC50": 42},
      {"smiles": "CC[C@H](C)[C@@H]1NC(=O)[C@H](CC(C)C)N(C)C(=O)C[C@@H](C(=O)N2CCCCC2)N(C)C(=O)[C@H](CC(C)C)N(C)C(=O)C(C)(C)NC(=O)[C@H](COCC(=O)NC(C)(C)C)N(C)C(=O)[C@H](CCc2ccc(C(F)(F)F)c(Cl)c2)NC(=O)CN(C)C(=O)[C@H](COCCC(C)C)N(C)C(=O)CN(C)C(=O)CN(C)C1=O", "note": "[Compound 1480] ([NMeL]I[Sar][Sar][NMeS](Isopentyl)[Sar][hPhe(3-Cl-4-CF3)][NMeS](CH2CONHtBu)[Aib][NMeL][NMeD]-Piperidide; lactam N-11)", "IC50": 8.9},
      {"smiles": "CC[C@H](C)[C@@H]1NC(=O)[C@H](C)N(C)C(=O)C[C@@H](C(=O)N2CCCCC2)N(C)C(=O)[C@H]([C@@H](C)CC)N(C)C(=O)C2(CCCC2)NC(=O)[C@@H](Cc2ccccc2)N(C)C(=O)[C@H](CCc2cc(F)c(C(F)(F)F)c(F)c2)NC(=O)CN(C)C(=O)[C@H](Cc2ccc(C)cc2)N(C)C(=O)[C@@H]2CCN2C(=O)[C@H](C)N(C)C1=O", "note": "[Compound 1887] ([NMeA]I[NMeA][Aze][NMePhe(4-Me)][Sar][hPhe(3,5-F2-4-CF3)][dNMeF][Ac5c][NMeI][NMeD]-Piperidide; lactam N-11)", "IC50": 180},
      {"smiles": "CC[C@H](C)[C@@H]1NC(=O)[C@H](CC(C)C)N(C)C(=O)C[C@@H](C(=O)N2CCCCC2)N(C)C(=O)[C@H](C2CCCCC2)N(C)C(=O)C2(CCCC2)NC(=O)[C@@H]2CCCCN2C(=O)[C@H](CCc2ccc(C(F)(F)F)c(Cl)c2)NC(=O)CN(C)C(=O)[C@H](CC2CCCCC2)N(C)C(=O)CN(C)C(=O)CN(C)C1=O", "note": "[Compound 728] ([NMeL]I[Sar][Sar][NMeCha][Sar][hPhe(3-Cl-4-CF3)][Pip][Ac5c][NMeChg][NMeD]-Piperidide; lactam N-11)", "IC50": 16}
    ]}
  ]
}
